Values joined by “and” are separate entries in the source; they are usually repeats but may differ in a detail not shown here. Identical values can stand only once. Active and inactive are the calls of the source.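 Rule for the calls: active = compounds giving half or more protection of infected cells from virus-caused growth loss, again on retest; inactive = the rest.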 Where a SMILES comes first, the peptide text is derived from it. Side-chain parts run from the residue outwards. The star is where a group is joined. Cbz = O=C(OCc1ccccc1)*; Boc = CC(C)(C)OC(=O)*
Tested on: CEM cells HIV-1 protection, formazan growth assay
Test: NCI AIDS Antiviral Assay
Settings: for IC50: measured here: growth of uninfected CEM cells
Outline: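 Category rules: moderately active means at least 50% protection on retest, and confirmed active means 100% protection reproducibly. The underlying data came from a formazan growth assay in HIV-1-infected CEM cells.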

Compound | EC50 [µM] | IC50 | outcome
CC(C)NCC(O)c1ccc(OCc2ccccc2)c(OCc2ccccc2)c1-c1ccccc1 (stereo not given) | > 200 | 3.09 µM | –
COC(=O)[C@H](Cc1ccccc1)NC(=O)N(CCNCCNC(=O)OC(C)(C)C)c1ccccc1 | > 200 | > 100 µM | –
c1ccc(CCN(CCc2ccccn2)CCc2ccccn2)nc1 | > 200 | > 100 µM | –
CCOP(=O)(OCC)/C(C#N)=C/c1ncc[nH]1 | > 200 | > 200 µM | –
O=C1CC(c2ccccc2)=Nc2ccccc2N1 | > 151 | > 151 µM | –
N#CC(c1ccc(O)cc1)N1CCN(C(C#N)c2ccc(O)cc2)CC1 (stereo not given) | > 200 | > 200 µM | –
O=[N+]([O-])c1ccc2c(c1)NC(O)C(O)N2 (stereo not given) | > 200 | 174 µM | –
CN(O)C1CC(=O)OC1CO[Si](C)(C)C(C)(C)C (stereo not given) | > 200 | 51.3 µM | –
Cc1ccc(-c2cc[n+]3c(n2)oc2ccccc23)cc1 | > 200 | 3.63 µM | –
Cn1c(=O)c(=O)n(C)c2cc(Cl)c(Cl)cc21 | > 200 | > 200 µM | –
CCOC(=O)/C=C/c1ccc(C#N)cc1 | – | – | inactive
Cc1cc(S(=O)(=O)NC2=NCc3c(F)cccc3N2)c(S)cc1Cl | > 97.7 | 72.4 µM | –
CCc1n[nH]c(=O)n1CC | > 200 | > 200 µM | –
CCC1(C)CC(=O)NC1=O (stereo not given) | > 37.2 | > 37.2 µM | –
O=c1[nH]c2ccccc2c(O)c1N=Nc1ccc(S(=O)(=O)O)cc1 | > 200 | > 200 µM | –
Nc1ncnc2oc(-c3ccccc3)nc12 | > 195 | > 195 µM | –
CN(C)CCNC(=O)c1cccc(CO)c1[N+](=O)[O-] | > 200 | > 200 µM | –
CC(C)(CN1CCCCC1)C(/C=C/c1ccc(Cl)c(Cl)c1)=N\NC(=O)N/N=C(/C=C/c1ccc(Cl)c(Cl)c1)C(C)(C)CN1CCCCC1 | > 200 | 2.24 µM | –
N#Cc1c(-c2ccccc2)[nH]c(=O)n(C2OC(CO)C(O)C(O)C2O)c1=O (stereo not given) | > 200 | > 200 µM | inactive
C=C(C)C1CCC2(C)OC2C1 (stereo not given) | > 200 | > 200 µM | –
c1ccc(N2C3Sc4ncccc4C2Sc2ncccc23)cc1 | > 66.1 | > 66.1 µM | –

Compound | EC50 [µM] | IC50 | outcome
NC(C(F)(F)F)(C(F)(F)F)P(=O)(Cc1ccccc1)Cc1ccccc1 | > 200 | 145 µM | –
CC1(n2[nH]c(=O)n(-c3ccccc3)c2=O)Cn2c(=O)n(-c3ccccc3)c(=O)n2-c2ccccc21 (stereo not given) | > 200 | > 200 µM | –
CN=C(NC(=S)N(C)C)N(C)C | – | – | inactive
COc1cc2c(cc1OC)C1Cc3cc(OC)c(OC)cc3C(C2)N1C | > 708 | 52.5 µM and 64.6 µM | –
Brc1ccc(-c2nnc(-c3nn(-c4ccccc4)c4nc5ccccc5nc34)o2)cc1 | > 8.13 | > 8.13 µM | –
Cc1cn(C2CC(N=[N+]=[N-])C(COC(=O)CCCCCCCCCCCN=[N+]=[N-])O2)c(=O)[nH]c1=O (stereo not given) | 0.0372 | 182 µM | –
CN(C)c1ccc(/C=C(\NC(=O)c2ccccc2)C(=O)Nc2ccccc2C(=O)O)cc1 | > 100 | > 100 µM | –
COc1cccc(CC2C(=O)N=C(NC(C)=O)N2C)c1OC(C)=O (stereo not given) | > 200 | 151 µM | –
Cc1cccc(NC(=O)/C(=N\N)C(c2cnc3ccc([N+](=O)[O-])cc3n2)[N+](=O)[O-])c1C (stereo not given) | > 85.1 | 66.1 µM | –
CC1=N/C(=C\c2ccc(Br)cc2)C(=O)O1 | > 135 | > 135 µM | –
COC(=O)C1CCC(=S)N1C(=O)c1ccccc1 (stereo not given) | > 200 | > 200 µM | –
O=C1CC2(CCC(O)(c3cccc4ccccc34)C(C(=O)c3cccc4ccccc34)C2)C(=O)c2ccccc2N1 (stereo not given) | > 200 | 110 µM | –
O=NN(CCCl)C(=O)NC1CCC(=O)NC1=O (stereo not given) | > 955 | 182 µM | –
CCO/C(CCn1[nH]c(=O)c(Cl)c(Cl)c1=O)=N\NC(=O)C(=O)NN | > 7.08 | > 7.08 µM | –
CC(C)(C)OC(=O)[C@@H]1ON2O[C@H](OC3CCCC3(c3ccccc3)c3ccccc3)C[C@H]3OC(=O)[C@@H]1[C@H]32 (stereo not given in full) | > 200 | 31.6 µM | –
COC(=O)c1ccc(/C=C2\Oc3cc(O)ccc3C2=O)cc1 | > 200 | 182 µM | –
CCCCOC(=O)C1CSSCC(NC(C)=O)C(=O)N1 (stereo not given) | > 200 | 112 µM | –
CN(C)C12C=CC=CC3=C(c4ccccc4)C(c4ccccc4)=C(c4ccccc4)C31c1ccccc1C2 (stereo not given) | > 200 | > 200 µM | –
CCOC(=O)c1c(-c2ccccc2)c(C(OC(c2ccccc2)c2c(-c3ccccc3)c(C(=O)OCC)n3ccccc23)c2ccccc2)c2ccccn12 (stereo not given) | > 5.25 | > 5.25 µM | –
COc1ccc(C(=O)N=C2N(c3ccccc3)C(=Nc3ccccc3)C(=Nc3ccccc3)N2c2ccccc2)cc1 | > 200 | 8.32 µM | –
CC(=O)Nc1cc2cc(NC=C(C#N)C#N)ccc2oc1=O | > 37.2 | > 37.2 µM | –

Compound | EC50 [µM] | IC50 | outcome
CC(=O)Nc1ccc(-c2nnc(SCC(=O)Nc3cccc(C)c3)o2)cc1 | > 67.6 | 11.7 µM | –
CN(C)c1ccc(Cc2cc(C(C)(C)C)cc(C(C)(C)C)c2O)cc1 | – | – | inactive
O=C1OCCN(CCO)C12CCCC2 | > 759 | > 759 µM | –
CN1CCN(CCC=C2c3ccccc3Sc3ccc(S(=O)(=O)N(C)C)cc32)CC1 | > 200 | 11.7 µM | –
O=C(O)c1ccc(OCc2nc3cc(C(F)(F)F)ccc3nc2-c2ccccc2)cc1 | > 200 | 33.9 µM | –
COC(=O)c1cc(Cc2cc(Br)cc(C(=O)OC)c2O)cc(Cl)c1O | > 100 | > 100 µM | –
CCCc1cc(=O)oc2c3c(cc(OC(C)COC)c12)O[C@H](C)[C@@H](C)[C@@H]3O (stereo not given in full) | 4.68 | 29.5 µM | –
COc1ccc(-c2cc(=O)c3c(O)cc(O)cc3o2)cc1 | > 105 | > 105 µM | –
Cc1ccc([B-]23OCC[N+]2(CNC(=O)C2=C(O)C4(O)C(=O)C5=C(O)c6c(O)cccc6C(C)(O)C5CC4C(N(C)C)C2=O)CCO3)cc1 (stereo not given) | > 53.7 | > 53.7 µM | –
O=C(c1ccccc1)N1OC12CCCCC2 | > 200 | 51.3 µM | –
O=[N+]([O-])c1ccc(Nc2nnc(-c3ccc(Cl)cc3Cl)s2)cc1 | – | – | inactive
COc1cc(OC)c2nc3occc3c(OC)c2c1 | > 363 | 58.9 µM | –
O=C(O)CCC(=O)Nc1ccc2c(c1)S(=O)(=O)N(CC(=O)O)C2=O | > 200 | > 200 µM | –
O=C(CSc1nnc(-c2ccc(N=Cc3ccc(Cl)cc3)cc2)o1)Nc1ccccc1Cl | > 269 | > 269 µM | –
NNC(=O)CC(=O)Nc1cccc(Cl)c1 | > 200 | 120 µM | –
CC(=O)Nc1c(C)cc2c(nc3n2CCC3O)c1[N+](=O)[O-] (stereo not given) | > 200 | > 200 µM | –
C[N+](C)(C)CCC[N+](C)(C)CCN1C(=O)c2cccc3cccc(c23)C1=O | > 200 | > 200 µM | –
O=C(c1ccccc1)c1nnn(Cc2ccccc2Cn2nnc(C(=O)c3ccccc3)c2C(=O)c2ccccc2)c1C(=O)c1ccccc1 | > 7.94 | > 7.94 µM | –
CCOC(=O)C1SC(=Nc2ccc(OC)c(OC)c2)N=C1C (stereo not given) | > 22.4 | > 22.4 µM | –
CC(=O)c1ccc(NCc2cc(O)ccc2O)cc1 | > 200 | 10.7 µM | –
C1OC1[C@@H]1CC[C@@H]([C@@H]2CC[C@@H]([C@H]3CO3)O2)O1 (stereo not given in full) | – | 39.8 µM | inactive

Compound | EC50 [µM] | IC50 | outcome
O=C1N/C(=C\c2ccccc2)C(=O)N1CN1CCCC1 | > 200 | 115 µM | –
CCOC(=O)c1[nH]c2c(cc(C=O)c3ccccc32)c1C | > 200 | 60.3 µM | –
CN(C)c1c(C2OC(CO)C(O)C2O)c(=O)c1=O (stereo not given) | > 200 | > 200 µM | –
COc1cc2occ(-c3ccc(O)c(O)c3)c(=O)c2cc1O | > 200 | 26.3 µM | –
COc1ccc(-n2cnc3c(NC(C)(C)C(=O)O)ncnc32)cc1 | > 200 | 126 µM | –
CC(C)CC(NC(=O)OCc1ccccc1)C(=O)NCCCCC(NC(=O)C(CCCCNC(=O)C(CC(C)C)NC(=O)OCc1ccccc1)NC(=O)C(CCCCNC(=O)C(CC(C)C)NC(=O)OCc1ccccc1)NC(=O)C(CCCCNC(=O)C(CC(C)C)NC(=O)OCc1ccccc1)NC(=O)OC(C)(C)C)C(=O)O (stereo not given) (Boc-K([Leu-Cbz])K([Leu-Cbz])K([Leu-Cbz])K([Leu-Cbz])-OH; configuration not given here) | > 100 | > 100 µM | –
COC(=O)C12C34C=CC5(CCC6(C=CC1(CC3)O6)C52C(=O)OC)O4 (stereo not given) | – | – | inactive
Cn1c(=O)c2[nH]c(=O)c(=O)[nH]c2n(C)c1=O | > 200 | > 200 µM | –
Nc1nc(N)c2nc(-c3ccccc3)c(N)nc2n1 | – | – | inactive
Cc1cc(C)c2c(c1)sc1nncn12 | – | – | inactive
O=C(O)CCC(O)=C1S(=O)(=O)OCCOS1(=O)=O | > 4470 | 331 µM | –
Cc1cc(=O)[nH]c(NN2C(Cl)C(=O)C2c2c(O)ccc3ccccc23)n1 (stereo not given) | > 182 | 24 µM | –
Cc1ccc2nc(-c3ccc(-c4nc5ccc(C)cc5o4)c(O)c3)oc2c1 | > 200 | > 200 µM | –
CC1(Cl)CC2OC3(Br)C=CC(C)(O)C2(CC1Br)C3(C)C (stereo not given) | > 102 | > 102 µM | –
O=C(NC(Nc1ccc(F)c(Cl)c1)(C(F)(F)F)C(F)(F)F)C(C(F)(F)F)C(F)(F)F | > 200 | – | –
O=C(Nc1sccc1S(=O)(=O)c1ccc(Cl)cc1)C(F)(F)F | > 200 | 9.55 µM | –
O=[N+]([O-])C(/C=C(\Cl)n1nnc2ccccc21)=C(/Cl)n1nnc2ccccc21 | > 200 | > 200 µM | –
CN(C)CCSC1=Nc2ccc(Cl)cc2C(c2ccccc2Cl)N(C)C1 (stereo not given) | > 200 | 20 µM | –
N#C/C(=C/c1cccc2ccccc12)C(=O)c1ccccc1 | > 13.2 | > 13.2 µM | –
CC(=O)CC(=O)CCCC(=O)Nc1ccc(Cl)cc1C | – | – | inactive
C=C1CCCCCCCCCCC12SCCC2CCCCSC (stereo not given) | > 200 | 120 µM | –

Reference: PubChem BioAssay AID179 (DTP/NCI, 2004)
